Earlier results as cited in US20200113856A1, “NON-PRESCRIPTION MOTION SICKNESS MEDICATION CONTAINING AN ANALGESIC, AN H2 BLOCKER, AND AT LEAST ONE ANTACID” (priority 2018, published 2020).

Columns and labels:
[1] = test system: pain or fever
[2] = test system: platelet thromboxane; settings: high-dose, throughout the dosing interval
[3] = test system: risk of stroke; settings: in vivo
[4] = test system: motion sickness; settings: patch worn behind the ear
[5] = test system: blood pressure; settings: several types of rat models susceptible to salt-sensitive hypertension, in contrast with sodium chloride
[6] = molecular target: histamine H2 receptors (Homo sapiens, UniProt P25021); settings: equimolar basis
histamine H2 receptors, sequence (P25021 whole entry): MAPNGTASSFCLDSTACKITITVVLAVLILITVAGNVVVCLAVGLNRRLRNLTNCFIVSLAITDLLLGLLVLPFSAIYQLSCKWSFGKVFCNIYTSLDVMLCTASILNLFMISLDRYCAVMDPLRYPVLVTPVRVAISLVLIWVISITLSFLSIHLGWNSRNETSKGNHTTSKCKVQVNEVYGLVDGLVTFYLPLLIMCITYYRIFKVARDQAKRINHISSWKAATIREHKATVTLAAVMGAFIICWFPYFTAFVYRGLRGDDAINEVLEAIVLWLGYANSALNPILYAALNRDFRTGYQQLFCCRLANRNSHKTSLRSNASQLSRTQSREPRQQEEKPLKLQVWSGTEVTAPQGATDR

[7] = test system: reflux esophagitis; settings: patients with reflux esophagitis

CC(=O)Nc1ccc(O)cc1 [Acetaminophen]
duration of effects ([1]; in vivo): between two and four hours

CC(=O)Oc1ccccc1C(=O)O [Aspirin, acetylsalicylic acid]
time until effects begin ([1]; for pain or fever): ≤ 30 min

COc1ccc2cc([C@H](C)C(=O)O)ccc2c1 [Naproxen]
suppression of platelet thromboxane [2]: near-complete suppression
associated risk of stroke compared with ibuprofen [3]: roughly 50%

CN1[C@@H]2C[C@@H](OC(=O)[C@H](CO)c3ccccc3)C[C@H]1[C@@H]1O[C@@H]12 [Scopolamine]
duration of effectiveness of patch [4]: three days

O=C([O-])O.[Na+] [Sodium bicarbonate, sodium hydrogen carbonate]
effect on blood pressure [5]: no effect

NC(N)=Nc1nc(CSCCC(N)=NS(N)(=O)=O)cs1 [famotidine]
times more potent than cimetidine [6]: ~20 times
times more potent than nizatidine [6]: approximately 7.5 times
times more potent than ranitidine [6]: approximately 7.5 times

CNC(=C[N+](=O)[O-])NCCSCc1csc(CN(C)C)n1 [nizatidine]
effectiveness as maintenance therapy versus famotidine [7]: more effective H2RA than famotidine
